Laboratory results published in patent US8828983B2, “Macrocycles as factor XIa inhibitors” (Bristol-Myers Squibb Company, priority 2010, dated 2014).

System: not given
Assay: not given
Conditions: from C=CCCCc1ccccc1-c1cn(COCC[Si](C)(C)C)c([C@H](CC=C)NC(=O)OC(C)(C)C)n1; rcm bond; 12-membered ring; Grubbs II (0.4 eq)/pTsOH.H2O; DCM; 0.97 mM; 40.0 °C

Row | Compound | ring closure, isolated yield
1 | CC(C)(C)OC(=O)N[C@H]1CC=CCCCc2ccccc2-c2cn(COCC[Si](C)(C)C)c1n2 | 45.3%

Same assay, conditions: from COC(=O)Nc1ccc(-c2cnc(C(Cc3ccc(F)c(CCC(=O)O)n3)NC(=O)OC(C)(C)C)o2)c(N)c1; amide bond; 14-membered ring; BOP/DMAP/DIEA; DCM/DMF; 1.1 mM; 25.0 °C; 16.0 h

Row | Compound | ring closure, isolated yield
2 | COC(=O)Nc1ccc2c(c1)NC(=O)CCc1nc(ccc1F)CC(NC(=O)OC(C)(C)C)C1=NC=C2O1 (centres unmarked) | 23%

Target: purified human Factor XIa (Homo sapiens (Human), UniProt P03951)
Sequence (P03951 388-625): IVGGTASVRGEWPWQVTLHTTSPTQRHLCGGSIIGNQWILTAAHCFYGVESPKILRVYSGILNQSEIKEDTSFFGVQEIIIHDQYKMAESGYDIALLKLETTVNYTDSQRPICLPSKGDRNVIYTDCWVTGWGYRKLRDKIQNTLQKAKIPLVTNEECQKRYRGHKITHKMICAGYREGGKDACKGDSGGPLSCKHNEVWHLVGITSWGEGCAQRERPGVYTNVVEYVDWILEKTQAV
Sequence (P03951 19-387 partner): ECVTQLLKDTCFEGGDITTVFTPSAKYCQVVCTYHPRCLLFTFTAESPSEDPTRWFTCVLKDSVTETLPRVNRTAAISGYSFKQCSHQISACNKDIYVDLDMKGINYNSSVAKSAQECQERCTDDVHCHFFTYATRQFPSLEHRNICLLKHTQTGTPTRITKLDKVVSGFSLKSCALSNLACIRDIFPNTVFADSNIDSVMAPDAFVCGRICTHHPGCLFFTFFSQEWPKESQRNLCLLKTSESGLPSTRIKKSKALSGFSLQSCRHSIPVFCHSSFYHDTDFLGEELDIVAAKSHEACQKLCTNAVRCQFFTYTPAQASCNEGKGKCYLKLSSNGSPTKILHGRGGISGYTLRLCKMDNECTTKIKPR
Assay: Factor XIa assay (chromogenic substrate S-2366 hydrolysis, Ki)
Assay type: biochemical
Conditions: substrate S-2366, pH 7.4
Experimental: The effectiveness of compounds of the present invention as inhibitors of the coagulation Factors XIa, VIIa, IXa, Xa, XIIa, plasma kallikrein or thrombin, can be determined using a relevant purified serine protease, respectively, and an appropriate synthetic substrate. The rate of hydrolysis of the chromogenic or fluorogenic substrate by the relevant serine protease was measured both in the absence and presence of compounds of the present invention. […] A decrease in the rate of absorbance or fluorescence change in the presence of inhibitor is indicative of enzyme inhibition. Such methods are known to one skilled in the art. The results of this assay are expressed as the inhibitory constant, Ki.
Factor XIa determinations were made in 50 mM HEPES buffer at pH 7.4 containing 145 mM NaCl, 5 mM KCl, and 0.1% PEG 8000 (polyethylene glycol; JT Baker or Fisher Scientific). Determinations were made using purified human Factor XIa at a final concentration of 25-200 pM (Haematologic Technologies) and the synthetic substrate S-2366 (pyroGlu-Pro-Arg-pNA; CHROMOGENIX® or AnaSpec) at a concentration of 0.0002-0.001 M.
Values of Ki were determined by allowing the protease to react with the substrate in the presence of the inhibitor. Reactions were allowed to go for periods of 20-180 minutes (depending on the protease) and the velocities (rate of absorbance or fluorescence change versus time) were measured. The following relationships were used to calculate Ki values: (vo−vs)/vs=I/(Ki(1+S/Km)) for a competitive inhibitor with one binding site; or vs/vo=A+((B−A)/1+((IC50/(I)0))); and Ki=IC50/(1+S/Km) for a competitive inhibitor where: […]

Row | Ki | Compound
3 | 2980 nM | O=C(/C=C/c1cc(Cl)ccc1-n1cnnn1)N[C@H]1C/C=C/CCOc2ccccc2-c2c[nH]c1n2 [Example 1, (E)-3-(5-Chloro-2-tetrazol-1-yl-phenyl)-N-(E)-(S)-8-oxa-16,18-diaza-tricyclo[13.2.1.0^2,7]octadeca-1(17),2,4,6,11,15(18)-hexaen-14-yl-acrylamide]
4 | < 5 nM | COC(=O)Nc1ccc2c(c1)NC(=O)CCCC[C@H](NC(=O)/C=C/c1cc(Cl)ccc1-n1cnnn1)c1nc-2c[nH]1 [Example 10, {(S)-14-[(E)-3-(5-Chloro-2-tetrazol-1-yl-phenyl)-acryloylamino]-9-oxo-8,16,18-triaza-tricyclo[13.2.1.0^2,7]octadeca-1(17),2,4,6,15(18)-pentaen-5-yl}-carbamic acid methyl ester]
5 | 2390 nM | COC(=O)Nc1ccc2c(c1)NC[C@@H]1CCN(C1)C(=O)C[C@H](NC(=O)/C=C/c1cc(Cl)ccc1-n1cnnn1)c1nc-2c[nH]1 [Example 86]
6 | 8.16 nM | COC(=O)Nc1ccc2c(c1)CCCCc1cccc(c1)C[C@H](NC(=O)/C=C/c1cc(Cl)ccc1-n1cnnn1)c1nc-2c(Cl)[nH]1 [Example 102]
7 | 71 nM | COC(=O)Nc1ccc2c(c1)CCCCc1ccc(cc1)C[C@H](NC(=O)/C=C/c1cc(Cl)ccc1-n1cnnn1)c1nc-2c[nH]1 [Example 111]
8 | < 5 nM | COC(=O)Nc1ccc2c(c1)NC(=O)CCc1nc(ccc1F)CC(NC(=O)/C=C/c1cc(Cl)ccc1C(C)=O)c1nc-2c[nH]1 (centres unmarked) [Example 140, Methyl N-{3-[(2E)-3-(2-acetyl-5-chlorophenyl)prop-2-enamido]-19-fluoro-15-oxo-5,14,22,23-tetraazatetracyclo[16.3.1.1^4,7.0^8,13]tricosa-1(22),4(23),6,8,10,12,18,20-octaen-11-yl}carbamate]
9 | 145 nM | COC(=O)Nc1ccc2c(c1)NC(=O)CCc1nc(ccc1F)CC(NC(=O)c1c(F)cc(C)cc1F)c1nc-2c[nH]1 (centres unmarked) [Example 142, Methyl N-{3-[(2,6-difluoro-4-methylbenzene)amido]-19-fluoro-15-oxo-5,14,22,23-tetraazatetracyclo[16.3.1.1^4,7.0^8,13]tricosa-1(22),4(23),6,8,10,12,18,20-octaen-11-yl}carbamate]
10 | 1310 nM | COC(=O)Nc1ccc2c(c1)NC(=O)CCc1nc(ccc1F)CC(NC(=O)[C@H]1CC[C@H](C)CC1)c1nc-2c[nH]1 (some centres unmarked) [Example 143, Methyl N-{19-fluoro-3-[(4-methylcyclohexane)amido]-15-oxo-5,14,22,23-tetraazatetracyclo[16.3.1.1^4,7.0^8,13]tricosa-1(22),4(23),6,8,10,12,18,20-octaen-11-yl}carbamate]
11 | 103 nM | COC(=O)Nc1ccc2c(c1)NC(=O)CCc1nc(ccc1F)CC(NC(=O)/C=C/c1cc(Cl)ccc1-n1cnnn1)c1nc-2cn1C (centres unmarked) [III-33]
